Read-outs that look alike come from different tables or passages of the source.
Tests used:
[1] = molecular target: Human CB1R (Cannabinoid receptor 1) (Homo sapiens (Human), UniProt P21554); assay: CB-1 in vitro cAMP assay (HTRF), inverse agonism; assay type: cell-based; conditions: mean where tested more than once
[2] = Mouse Fast PK/BBB (plasma and brain concentration); assay type: in vivo; conditions: male, C57bl/6j, brain, oral, N=3 (dose given as 30 mg/kg and 20 mg/kg), read-out: BRAIN Mean Conc. ± Std. Dev
[3] = Mouse Fast PK/BBB (plasma and brain concentration); assay type: in vivo; conditions: male, C57bl/6j, oral, N=3 (dose given as 30 mg/kg and 20 mg/kg)
From the text: Male Sprague Dawley rats were ordered from Charles River (225-250 gm upon arrival). They were fed standard chow diet (Purina 5001) and housed 2 per cage. Male C57bl/6j mice were ordered from Charles River at 22-25 g and housed 3 per cage. They were fed standard chow (Purina 5001). All animals were housed in a temperature-controlled room with 12-hour light/dark cycle. Animals were given food and water ad libitum, except as noted.
(§1) Test compounds were formulated in 10% PEG400 and 10% solutol. Test compounds were administered by oral gavage (5 ml kg^−1).
Male C57bl/6j mice were dosed with test compounds at 30 mg/kg. Plasma was collected via retro-orbital bleeding at 1 hr and 4 hrs after dosing. Whole brain without cerebellum was collected at 4 hrs after dosing. Wet brain weight was recorded before freezing. Brains were homogenized in saline and sent for analysis for determination of concentration of test compound.
Table BIO-3 below present results for representative compounds of the present invention, tested according to the procedure as described above. Each compound was tested in three animals (N=3) and administered PA at 20 mg/kg

[4] = molecular target: Human CB2R (Cannabinoid receptor 2) (Homo sapiens (Human), UniProt P34972); assay: CB-2 in vitro cAMP assay (HTRF), inverse agonism; assay type: cell-based; conditions: mean where tested more than once
Chain of Human CB2R (Cannabinoid receptor 2) (P34972 whole entry): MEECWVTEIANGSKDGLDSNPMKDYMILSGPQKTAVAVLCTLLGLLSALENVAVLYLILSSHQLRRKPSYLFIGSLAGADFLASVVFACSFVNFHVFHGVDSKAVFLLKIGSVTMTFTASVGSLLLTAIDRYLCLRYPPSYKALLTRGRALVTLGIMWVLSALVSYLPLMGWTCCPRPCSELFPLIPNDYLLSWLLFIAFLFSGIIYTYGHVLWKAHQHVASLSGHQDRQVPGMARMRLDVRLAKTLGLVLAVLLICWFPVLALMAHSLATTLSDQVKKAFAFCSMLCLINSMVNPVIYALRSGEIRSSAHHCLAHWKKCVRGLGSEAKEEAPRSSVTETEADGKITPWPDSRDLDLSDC

[5] = Chronic DIO Mouse, first study: plasma and brain concentrations; assay type: in vivo; conditions: male, DIO mice, 2 Hours Post Dose, Day 16, (Std Dev)
Protocol: Male 14-20-week old diet-induced obese mice were ordered from Taconic. Mice were started on a 60% fat diet (D12492, Research Diets, New Brunswick, N.J.) at 6 weeks of age. Mice were single-housed.
as §1
The test compound was formulated in 10% PEG400 and 10% solutol. DIO mice received vehicle, test compound (@ 1, 3 and 10 mg/kg) daily for 26 days. At the end of the experiment, the mice were euthanized and blood and tissues were collected.
Compound #44 was tested according to the procedure as described above, with results as listed in Table BIO-4A through Table BIO4-G, below.

Chain of Human CB1R (Cannabinoid receptor 1) (P21554 whole entry): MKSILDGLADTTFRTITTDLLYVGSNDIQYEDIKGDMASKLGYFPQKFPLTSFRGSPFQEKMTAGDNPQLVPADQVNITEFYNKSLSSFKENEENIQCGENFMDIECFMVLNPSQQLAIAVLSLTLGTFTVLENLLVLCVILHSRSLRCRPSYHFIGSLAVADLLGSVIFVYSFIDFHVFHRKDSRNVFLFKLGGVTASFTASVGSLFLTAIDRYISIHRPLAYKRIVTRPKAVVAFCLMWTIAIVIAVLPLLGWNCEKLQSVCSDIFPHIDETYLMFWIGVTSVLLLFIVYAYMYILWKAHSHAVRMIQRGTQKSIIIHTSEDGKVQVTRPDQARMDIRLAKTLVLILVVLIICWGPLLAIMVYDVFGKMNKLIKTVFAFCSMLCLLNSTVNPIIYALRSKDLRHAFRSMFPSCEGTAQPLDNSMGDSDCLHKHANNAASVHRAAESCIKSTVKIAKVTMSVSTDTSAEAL

EC50 [1]: 0.008 µM
concentration at 1 h [2]: 7.62 ± 2.28 ng/mL
concentration at 4 h ([3]; brain, read-out: BRAIN Mean Conc. ± Std. Dev): 11.8 ± 8.99 ng/mL
concentration at 1 h ([3]; plasma, 1 hr, read-out: PLASMA Mean Conc. ± Std. Dev): 1050 ± 122 ng/mL
concentration at 4 h ([3]; plasma, read-out: PLASMA Mean Conc. ± Std. Dev): 1180 ± 148 ng/mL
EC50 [4]: 5.23 µM
concentration at 2 h ([5]; brain, 1 mg/kg daily oral, read-out: Brain concentration): 59.4 ng/g
concentration at 2 h ([5]; brain, 3 mg/kg daily oral, read-out: Brain concentration): 114 ng/g
concentration at 2 h ([5]; brain, 10 mg/kg daily oral, read-out: Brain concentration): 244 ng/g
concentration at 2 h ([5]; plasma, 1 mg/kg daily oral, read-out: Plasma concentration): 31 ng/mL
concentration at 2 h ([5]; plasma, 3 mg/kg daily oral, read-out: Plasma concentration): 1510 ng/mL
concentration at 2 h ([5]; plasma, 10 mg/kg daily oral, read-out: Plasma concentration): 4440 ng/mL
Compound: O=c1cc(NC2CCN(S(=O)(=O)C(F)(F)F)CC2)c2cc(C(c3ccc(Cl)cc3)c3ccc(Cl)cc3)ccc2[nH]1 [Compound #44, 6-(bis(4-chlorophenyl)methyl)-4-(1-(trifluoromethylsulfonyl)piperidin-4-ylamino)quinolin-2(1H)-one]

— US9266835B2, “Quinoline derivatives useful as CB-1 inverse agonists” (JANSSEN PHARMACEUTICA NV, priority 2014, dated 2016)
